Assay results from US7001907B2, “Peptide-containing α-ketoamide cysteine and serine protease inhibitors” (Cephaon, Inc., priority 1997, dated 2006).

Target: T1, Recombinant human calpain I (Homo sapiens, UniProt P07384)
T1 construct: made in house
T1 sequence (P07384 1-714): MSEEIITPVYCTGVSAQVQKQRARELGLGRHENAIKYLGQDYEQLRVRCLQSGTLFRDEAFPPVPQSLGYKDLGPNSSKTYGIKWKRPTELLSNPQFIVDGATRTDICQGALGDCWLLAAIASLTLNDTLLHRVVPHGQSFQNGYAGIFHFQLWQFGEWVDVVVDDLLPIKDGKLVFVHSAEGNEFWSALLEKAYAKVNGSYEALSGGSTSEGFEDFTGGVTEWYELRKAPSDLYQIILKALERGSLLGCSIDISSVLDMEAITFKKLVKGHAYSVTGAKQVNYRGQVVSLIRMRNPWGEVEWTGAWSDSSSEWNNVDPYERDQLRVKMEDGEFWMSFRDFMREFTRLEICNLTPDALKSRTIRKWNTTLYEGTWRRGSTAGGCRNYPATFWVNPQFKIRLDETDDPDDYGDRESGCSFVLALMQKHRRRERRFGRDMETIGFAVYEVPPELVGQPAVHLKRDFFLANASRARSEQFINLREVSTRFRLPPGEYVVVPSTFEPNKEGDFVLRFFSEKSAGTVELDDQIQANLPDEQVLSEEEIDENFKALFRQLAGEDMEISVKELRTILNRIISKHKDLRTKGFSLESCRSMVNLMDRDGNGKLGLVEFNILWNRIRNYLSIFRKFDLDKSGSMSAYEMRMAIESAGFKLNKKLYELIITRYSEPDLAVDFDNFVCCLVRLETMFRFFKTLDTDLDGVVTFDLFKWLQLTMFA
T1 sequence (P04632 1-268 partner): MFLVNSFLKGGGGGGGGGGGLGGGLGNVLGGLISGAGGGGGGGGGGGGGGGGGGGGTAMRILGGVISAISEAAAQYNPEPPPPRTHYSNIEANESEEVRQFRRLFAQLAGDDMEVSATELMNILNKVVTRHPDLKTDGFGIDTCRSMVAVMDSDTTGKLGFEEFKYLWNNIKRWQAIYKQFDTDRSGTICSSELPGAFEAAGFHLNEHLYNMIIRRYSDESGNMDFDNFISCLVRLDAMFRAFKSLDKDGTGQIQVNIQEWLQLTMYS
Test: Inhibition of cysteine protease activity: calpain I, Succ-Leu-Tyr-MNA substrate hydrolysis
Assay type: biochemical
Conditions: for Percent inhibition @ 10 μM (Calpain): Table 2, 10 μM compound, values in brackets marked **
Method: To evaluate inhibitory activity, stock solutions (40 times concentrated) of each compound to be tested were prepared in 100% anhydrous DMSO and 5 μl of each inhibitor preparation were aliquoted into each of three wells of a 96-well plate. Recombinant human calpain I, prepared by the method of Meyer et al. (Biochem. J. 1996, 314: 511–519; incorporated herein by reference in its entirety), was diluted into assay buffer (i.e., 50 mM Tris, 50 mM NaCl, 1 mM EDTA, 1 mM EGTA, and 5 mM β-mercaptoethanol, pH 7.5, including 0.2 mM Succ-Leu-Tyr-MNA), and 175 μl was aliquoted into the same wells containing the independent inhibitor stocks as well as to positive control wells containing 5 μl DMSO, but no compound. To start the reaction, 20 μl of 50 mM CaCl2 in assay buffer was added to all wells of the plate, excepting three, which were used as background signal baseline controls. Substrate hydrolysis was monitored every 5 minutes for a total of 30 minutes. Substrate hydrolysis in the absence of inhibitor was linear for up to 15 minutes.
Inhibition of calpain I activity was calculated as the percent decrease in the rate of substrate hydrolysis in the presence of inhibitor relative to the rate in its absence. Comparison between the inhibited and control rates was made within the linear range for substrate hydrolysis. The IC50s of inhibitors (concentration yielding 50% inhibition) were determined from the percent decrease in rates of substrate hydrolysis in the presence of five to seven different concentrations of the test compound. The results were plotted as percent inhibition versus log inhibitor concentration, and the IC50 was calculated by fitting the data to the four-parameter logistic equation shown below using the program GraphPad Prism (GraphPad Software, Inc., San Diego, Calif.). y=d+[(a−d)/(1+(x/c)^b)]
The parameters a, b, c, and d are defined as follows: a is % inhibition in the absence of inhibitor, b is the slope, c is the IC50, and d is the % inhibition at an infinite concentration of inhibitor.

[1] = Table 3, branched-chain α-ketoamides

| IC50 (Table 2, linear α-ketoamides) [nM] | IC50 (Table 4, α-ketoamides) [nM] | SMILES | other results |
| --- | --- | --- | --- |
| 25 |  | Cn1nc(-c2ccc(S(=O)(=O)NCCNC(=O)C(=O)C(Cc3ccccc3)NC(=O)C(COCc3ccccc3)NS(C)(=O)=O)s2)cc1C(F)(F)F (mixture of isomers) [Compound 34] |  |
| 14 |  | CS(=O)(=O)NC(COCc1ccccc1)C(=O)NC(Cc1ccccc1)C(=O)C(=O)NCCNS(=O)(=O)c1ccc(-c2ccccc2)s1 (mixture of isomers) [Compound 42] |  |
| 31 |  | CS(=O)(=O)NC(COCc1ccccc1)C(=O)NC(Cc1ccccc1)C(=O)C(=O)NCCNS(=O)(=O)c1ccc(-c2cccc(N)c2)s1 (mixture of isomers) [Compound 44] |  |
|  | 21 | CS(=O)(=O)NC(C(=O)NC(Cc1ccccc1)C(=O)C(=O)NCCNS(=O)(=O)c1ccc(-c2ccccn2)s1)c1ccccc1 (mixture of isomers) [Compound 68] |  |
|  | 80 | CS(=O)(=O)NC(C(=O)NC(Cc1ccccc1)C(=O)C(=O)NCCNS(=O)(=O)c1ccccc1)c1ccccc1 (mixture of isomers) [Compound 69] |  |
|  | 18 | CS(=O)(=O)NC(COCc1ccccc1)C(=O)NC(Cc1ccccc1)C(=O)C(=O)NCCNS(=O)(=O)c1ccc(-c2cccc(F)c2)s1 (mixture of isomers) [Compound 72] |  |
|  | 15 | CS(=O)(=O)NC(COCc1ccccc1)C(=O)NC(Cc1ccccc1)C(=O)C(=O)NCCNS(=O)(=O)c1ccc(-c2cccc([N+](=O)[O-])c2)s1 (mixture of isomers) [Compound 74] |  |
|  | 36 | Cc1cccc(-c2ccc(S(=O)(=O)NCCNC(=O)C(=O)C(Cc3ccccc3)NC(=O)C(COCc3ccccc3)NS(C)(=O)=O)s2)c1 (mixture of isomers) [Compound 75] |  |
|  | 11 | CC(=O)Nc1cccc(-c2ccc(S(=O)(=O)NCCNC(=O)C(=O)C(Cc3ccccc3)NC(=O)C(COCc3ccccc3)NS(C)(=O)=O)s2)c1 (mixture of isomers) [Compound 76] |  |
|  | 10 | CC(=O)c1cccc(-c2ccc(S(=O)(=O)NCCNC(=O)C(=O)C(Cc3ccccc3)NC(=O)C(COCc3ccccc3)NS(C)(=O)=O)s2)c1 (mixture of isomers) [Compound 77] |  |
|  | 48 | CS(=O)(=O)NC(COCc1ccccc1)C(=O)NC(Cc1ccccc1)C(=O)C(=O)NC1CCN(S(=O)(=O)c2ccc(CN3CCOCC3)cc2)CC1 (mixture of isomers) [Compound 78] |  |
|  | 13 | COc1ccc(-c2ccc(S(=O)(=O)NCCNC(=O)C(=O)C(Cc3ccccc3)NC(=O)C(COCc3ccccc3)NS(C)(=O)=O)s2)cc1 (mixture of isomers) [Compound 82] |  |
|  | 12 | CS(=O)(=O)NC(COCc1ccccc1)C(=O)NC(Cc1ccccc1)C(=O)C(=O)NCCCCCNS(=O)(=O)c1ccc(-c2ccccn2)s1 (mixture of isomers) [Compound 92] |  |
|  | 23 | CS(=O)(=O)NC(COCc1ccccc1)C(=O)NC(Cc1ccccc1)C(=O)C(=O)NC1CCN(S(=O)(=O)c2ccc(-c3ccccn3)s2)CC1 (mixture of isomers) [Compound 107] |  |
|  | 11 | CS(=O)(=O)NC(COCc1ccccc1)C(=O)NC(Cc1ccccc1)C(=O)C(=O)NCCNS(=O)(=O)c1ccc(-c2cccc(C#N)c2)s1 (mixture of isomers) [Compound 110] |  |
|  | 73 | CS(=O)(=O)NC(COCc1ccccc1)C(=O)NC(Cc1ccccc1)C(=O)C(=O)NCCNS(=O)(=O)c1ccc(CN2CC=CC2)cc1 (mixture of isomers) [Compound 111] |  |
| 16 |  | CS(=O)(=O)N[C@H](COCc1ccccc1)C(=O)N[C@@H](Cc1ccccc1)C(=O)C(=O)NCCNS(=O)(=O)c1ccccc1 [Compound 9] |  |
|  |  | O=C(NCCNS(=O)(=O)c1ccccc1)C(=O)[C@H](Cc1ccccc1)NC(=O)[C@@H]1CCCN1S(=O)(=O)c1ccccc1 [Compound 13] | Percent inhibition @ 10 μM (Calpain): (78%) |
| 11 |  | CC(C)C[C@H](NC(=O)OCc1ccccc1)C(=O)N[C@@H](Cc1ccccc1)C(=O)C(=O)NCCNS(=O)(=O)c1ccccc1 [Compound 17] |  |

| IC50 (Table 2, linear α-ketoamides) [nM] | IC50 (Table 4, α-ketoamides) [nM] | SMILES | other results |
| --- | --- | --- | --- |
| 42 |  | CS(=O)(=O)N[C@H](COCc1ccccc1)C(=O)N[C@@H](Cc1ccccc1)C(=O)C(=O)NCCNS(=O)(=O)c1ccc(N)cc1 [Compound 22] |  |
| 14 |  | CS(=O)(=O)N[C@H](COCc1ccccc1)C(=O)N[C@@H](Cc1ccccc1)C(=O)C(=O)NCCNS(=O)(=O)c1ccc(-c2ccccc2)s1 [Compound 29] |  |
|  |  | O=C(NCCNS(=O)(=O)c1ccccc1)C(=O)[C@H](Cc1ccccc1)NC(=O)[C@H](Cc1ccccc1)NS(=O)(=O)c1ccccc1 [Compound 30] | Percent inhibition @ 10 μM (Calpain): (97%) |
| 29 |  | CS(=O)(=O)N[C@H](COCc1ccccc1)C(=O)N[C@@H](Cc1ccccc1)C(=O)C(=O)NCCNS(=O)(=O)c1cccnc1 [Compound 31] |  |
| 10 |  | CS(=O)(=O)N[C@H](COCc1ccccc1)C(=O)N[C@@H](Cc1ccccc1)C(=O)C(=O)NCCNS(=O)(=O)c1ccc(-c2ccon2)s1 [Compound 32] |  |
| 17 |  | CSc1nccc(-c2ccc(S(=O)(=O)NCCNC(=O)C(=O)[C@H](Cc3ccccc3)NC(=O)[C@@H](COCc3ccccc3)NS(C)(=O)=O)s2)n1 [Compound 33] |  |
| 91 |  | CS(=O)(=O)NCCNC(=O)C(=O)[C@H](Cc1ccccc1)NC(=O)[C@@H](COCc1ccccc1)NS(C)(=O)=O [Compound 35] |  |
| 18 |  | CS(=O)(=O)N[C@H](COCc1ccccc1)C(=O)N[C@@H](Cc1ccccc1)C(=O)C(=O)NCCNS(=O)(=O)c1ccc(S(=O)(=O)c2ccccc2)s1 [Compound 37] |  |
| 22 |  | CS(=O)(=O)N[C@H](COCc1ccccc1)C(=O)N[C@@H](Cc1ccccc1)C(=O)C(=O)NCCNS(=O)(=O)c1ccc(Br)s1 [Compound 39] |  |
| 63 |  | CS(=O)(=O)N[C@H](COCc1ccccc1)C(=O)N[C@@H](Cc1ccccc1)C(=O)C(=O)NCCNS(=O)(=O)c1ccc(-c2ccc(N)cc2)cc1 [Compound 40] |  |
| 64 |  | CN(C)Cc1ccc(S(=O)(=O)NCCNC(=O)C(=O)[C@H](Cc2ccccc2)NC(=O)[C@@H](COCc2ccccc2)NS(C)(=O)=O)cc1 [Compound 45] |  |
| 144 |  | CS(=O)(=O)N[C@H](COCc1ccccc1)C(=O)N[C@@H](Cc1ccccc1)C(=O)C(=O)NCCNS(=O)(=O)CCc1ccncc1 [Compound 46] |  |
|  |  | C[C@H](CNC(=O)C(=O)[C@H](Cc1ccccc1)NC(=O)[C@@H](COCc1ccccc1)NS(C)(=O)=O)NS(=O)(=O)c1ccccc1 [Compound 48] | IC50 [1]: 43 nM |
|  |  | C[C@@H](CNS(=O)(=O)c1ccccc1)NC(=O)C(=O)[C@H](Cc1ccccc1)NC(=O)[C@@H](COCc1ccccc1)NS(C)(=O)=O [Compound 49] | IC50 [1]: 32 nM |
|  |  | CN(CCNC(=O)C(=O)[C@H](Cc1ccccc1)NC(=O)[C@@H](COCc1ccccc1)NS(C)(=O)=O)S(=O)(=O)c1ccccc1 [Compound 50] | Calpain percent inhibition, value in brackets marked ** (Table 3, concentration not given): (100%) |
|  | 29 | CS(=O)(=O)N[C@H](COCc1ccccc1)C(=O)N[C@@H](Cc1ccccc1)C(=O)C(=O)NCCNS(=O)(=O)c1cccc(-c2csc(N)n2)c1 [Compound 51] |  |
|  | 5 | CS(=O)(=O)N[C@H](COCc1ccccc1)C(=O)N[C@@H](Cc1ccccc1)C(=O)C(=O)NCCNS(=O)(=O)c1ccc(-c2cccc(C=O)c2)s1 [Compound 52] |  |
|  | 15 | CS(=O)(=O)N[C@H](COCc1ccccc1)C(=O)N[C@@H](Cc1ccccc1)C(=O)C(=O)NCCNC(=NC#N)Oc1ccccc1 [Compound 53] |  |
|  | 12 | CN(C)Cc1cccc(-c2ccc(S(=O)(=O)NCCNC(=O)C(=O)[C@H](Cc3ccccc3)NC(=O)[C@@H](COCc3ccccc3)NS(C)(=O)=O)s2)c1 [Compound 54] |  |
